Reference: patent US5183906A, “2- and 5-alkyl and phenyl substituted 4-(1-hydroxy, 1-acyloxy or 1-carbamoyloxy)-5-hydroxy-2 (5H)-furanones as anti-inflammatory agents” (Allergan, Inc., priority 1991, dated 1993)
Where two headings read alike, the source gives them in different places.

Experiments:
Calcium^2+ Channel = Calcium^2+ Channel Mobilization Inhibition Assay; format: cell-based; conditions: cell type not stated
Procedure: Polymorphonuclear leukocytes (PMNa), gastric glands, GH3 cells, A431 cells, spleen cells, human keratinocytes corneal cells, etc. were loaded with the Ca^2+ sensitive fluorescent dye, Fura-2. The appropriate cell type was chosen and the potency and efficacy of the anti-inflammatory furanones on calcium mobilization, calcium channel inhibition was quantitated. The methods used for A431 cells listed below are representative of those used for other cells.
A431 cells were detached using a 5-10 min trypsin-EDTA treatment whereas GH3 cells were treated 2 to 5 min with a 1% pancreatin solution. Cells were immediately washed twice in a 20 mM HEPES buffer (pH 7.4) containing 120 mM NaCl, 6 mM KCl, 1 mM MgSO4, 1 mg/ml glucose and 1 mg/ml pyruvate and 1.4 mM calcium (medium A). Approximately 5×10^6 cells were suspended in medium A and incubated with 4uM fura-2-AM for 15 min at 37° C.
After washing the fura-2 loaded cells, the uptake of dye was checked using fluorescence microscopy and found to be evenly distributed in the cytosol of all cells. Fluorescence was continuously recorded with a Perkin-Elmer LS-5 spectrofluorometer. The excitation wavelength was set at 340 nm and emission wavelength set at 500 nm. The cell suspension was continually stirred, maintained at 37° C. and equilibrated for approximately 5 min before addition of various agents. [Ca^2+ i was calculated using the following formula: [formula]
All fluorescence values were measured relative to a EGTA-quenched signal determined as follows: F was the relative fluorescence measurement of the sample. Fmax was determined by lysing the cells with digitonin (100 ug/ml) in DMSO. After Fmax was determined the pH was adjusted to 8, with NaOH and Ca^2+ chelated with 3 mM EGTA to totally quench the fura-2 signal and obtain Fmin.
When quin-2- was used, cells were incubated with 10 uM quin-2- at 37° C. for 1 hour, washed and then used.

[1] = molecular target: bee venom phospholipase A2 (Apis mellifera, UniProt P00630); test: biochemical; conditions: pH 7.4
bee venom phospholipase A2, sequence (P00630 34-167 limits assumed): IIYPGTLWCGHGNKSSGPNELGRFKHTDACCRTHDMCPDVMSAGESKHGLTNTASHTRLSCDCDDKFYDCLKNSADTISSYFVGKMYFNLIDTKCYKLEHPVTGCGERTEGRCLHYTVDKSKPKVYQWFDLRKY

[2] = KCl induced, read-out: IC50, Calcium^2+ Channel Mobilization Inhibition Assay, KCl induced
[3] = TRH induced, read-out: IC50, Calcium^2+ Channel Mobilization Inhibition Assay, TRH induced

SMILES | IC50 (Calcium^2+ Channel; [2]) | IC50 (Calcium^2+ Channel; [3]) | IC50 [1]
CCCCCCCCCCCCC(OC(C)=O)C1=CC(=O)OC1(C)O (stereo not shown) [Compound 1, 4-(1-Acetoxytridecyl)-5-hydroxy-5-methyl-2-furanone] | 7 µM | 2.5 µM | –
CCCCCCCCCCCCC(OC(=O)Nc1ccccc1)C1=CC(=O)OC1(C)O (stereo not shown) [Compound 4, 5-Methyl-5-hydroxy-4-(1-phenylcarbamoyloxy)tridecyl-2-furanone] | 0.8 µM | 0.5 µM | –
CCCCCCCCCCCCC(OC(C)=O)C1=C(C)C(=O)OC1O (stereo not shown) [Compound 2, 4-(1-Acetoxytridecyl)-3-methyl-5-hydroxy-2(5H)-furanone] | – | – | > 1 µM
CC1=C(CC/C(C)=C/CCC2=CCC(C3=CC(=O)OC3O)OC2O)C(C)(C)CCC1 (stereo not shown) [manoalide, reference compound] | 0.8 µM | 0.6 µM | –
